Measurements published in patent publication US12258370B2, “Betulastatin compounds” (Arizona Board of Regents on behalf of Arizona State …, priority 2017, dated 2025).
≈ marks a conversion by molar mass, not a printed value.

Legend:
Format in all cases: cell-based
MCF-7 (breast) = test: Sulforhodamine B human cancer cell growth inhibition, MCF-7; conditions: compounds in DMSO, 48 h; for Gl50 Growth Inhibition, MCF-7: MCF-7 breast cell line; for IC50: Homo sapiens, MCF7, MCF-7 breast cell line, read-out: Gl50 Growth Inhibition, MCF-7
Procedure: (§1) Cancer Cell Line Procedures. Inhibition of human cancer cell growth was assessed using the standard sulforhodamine B assay of the U.S. National Cancer Institute, as previously described.^15 To begin, cells in a 5% fetal bovine serum/RPMI1640 medium were inoculated in 96-well plates and incubated for 24 h. Next, serial dilutions of the compounds were added. After 48 h, the plates were fixed with trichloroacetic acid, stained with sulforhodamine B, and read with an automated microplate reader.

DU-145 (prostate) = test: Sulforhodamine B human cancer cell growth inhibition, DU-145; conditions: DU-145 prostate cell line, compounds in DMSO, 48 h; for IC50: Homo sapiens, read-out: Gl50 Growth Inhibition, DU-145
Procedure: as §1

BXPC-3 (pancreas) = test: Sulforhodamine B human cancer cell growth inhibition, BXPC-3; conditions: BXPC-3 pancreas cell line, compounds in DMSO, 48 h; for IC50: Homo sapiens, read-out: Gl50 Growth Inhibition, XPC-3
Procedure: as §1

SF-268 (CNS) = test: Sulforhodamine B human cancer cell growth inhibition, SF-268; conditions: SF-268 CNS cell line, compounds in DMSO, 48 h; for IC50: Homo sapiens, read-out: Gl50 Growth Inhibition, SF-268
Procedure: as §1

Human Cancer Cell Lines = test: Human cancer cell line panel, overall comparison of growth inhibition; conditions: general statement on Table 1; comparator not stated
Procedure: as §1, with “reader. A growth inhibition of 50% (GI50 or the drug concentration causing a 50% reduction in the net protein increase) was calculated from optical density data with Immunosoft® software.” for “reader.”

NCI-H460 (lung) = test: Sulforhodamine B human cancer cell growth inhibition, NCI-H460; conditions: NCI-H460 lung cell line, compounds in DMSO, 48 h; for IC50: Homo sapiens, read-out: Gl50 Growth Inhibition, NCI-H460
Procedure: as §1

KM20L2 (colon) = test: Sulforhodamine B human cancer cell growth inhibition, KM20L2; conditions: compounds in DMSO, 48 h; for Gl50 Growth Inhibition, KM20L2: KM20L2 colon cell line; for IC50: Homo sapiens, KM-20L2, KM20L2 colon cell line, read-out: Gl50 Growth Inhibition, KM20L2
Procedure: as §1

For “3β-Amino-N-(Dap-Dil-Val-Dov)-betulin [Compound 11b]”, which “Gl50 Growth Inhibition, MCF-7” value (MCF-7 (breast)) is on record?
Its value is 0.70 µg/mL.

And the “Gl50 Growth Inhibition, DU-145” value (DU-145 (prostate))?
The value was 0.40 µg/mL.

And the “Gl50 Growth Inhibition, XPC-3” value (BXPC-3 (pancreas))?
Its value is 2.0 µg/mL.

And the “Gl50 Growth Inhibition, SF-268” value (SF-268 (CNS))?
Its value is 0.40 µg/mL.

What about the “fold increase in cancer cell growth inhibition” value (Human Cancer Cell Lines) of the same compound?
Its value is ~10 fold.

What about the “Gl50 Growth Inhibition, NCI-H460” value (NCI-H460 (lung)) of the same compound?
Its value is 2.1 µg/mL.

What about the “Gl50 Growth Inhibition, KM20L2” value (KM20L2 (colon)) of the same compound?
The value was 0.85 µg/mL.

With `C=C(C)[C@@H]1CC[C@]2(COC(C)=O)CC[C@]3(C)[C@H](CC[C@@H]4[C@@]5(C)CCC(N)C(C)(C)[C@@H]5CC[C@]43C)[C@@H]12` (single isomer, unassigned) [Compound 9b, 3-α/β-Amino-28-O-acetyl-betulin] as the compound, how does the “Gl50 Growth Inhibition, MCF-7” value (MCF-7 (breast)) read?
Its value is 0.20 µg/mL.

What about the “Gl50 Growth Inhibition, DU-145” value (DU-145 (prostate)) of the same compound?
The value was 0.13 µg/mL.

What about the “Gl50 Growth Inhibition, XPC-3” value (BXPC-3 (pancreas)) of the same compound?
Its value is 1.1 µg/mL.

And the “Gl50 Growth Inhibition, SF-268” value (SF-268 (CNS))?
Its value is 0.21 µg/mL.

What about the “fold increase in cancer cell growth inhibition” value (Human Cancer Cell Lines) of the same compound?
The value was ~10 fold.

And the “Gl50 Growth Inhibition, NCI-H460” value (NCI-H460 (lung))?
Its value is 0.21 µg/mL.

And the “Gl50 Growth Inhibition, KM20L2” value (KM20L2 (colon))?
Its value is 0.35 µg/mL.

Which IC50 (MCF-7 (breast)) does the source give for `C=C(C)[C@@H]1CC[C@]2(CNC(=O)[C@H](C)[C@@H](OC)C3CCCN3C(=O)C[C@@H](OC)[C@H]([C@@H](C)CC)N(C)C(=O)C(NC(=O)[C@H](C(C)C)N(C)C)C(C)C)CC[C@]3(C)C(CCC4[C@@]5(C)CC[C@H](O)C(C)(C)C5CC[C@]43C)C12` (stereo partly drawn) [Compound 7b, Betulin-28-amino-N-(Dap-Dil-Val-Dov)] here?
Its IC50 is 0.4 mg/L (≈ 0.391 µM).

What about the IC50 (DU-145 (prostate)) of the same compound?
Its IC50 is 0.4 mg/L (≈ 0.391 µM).

What about the IC50 (BXPC-3 (pancreas)) of the same compound?
Its IC50 is 0.6 mg/L (≈ 0.587 µM).

And the IC50 (SF-268 (CNS))?
Its IC50 is 0.3 mg/L (≈ 0.293 µM).

And the “fold increase in cancer cell growth inhibition” value (Human Cancer Cell Lines)?
Its value is ~10 fold.

What about the IC50 (NCI-H460 (lung)) of the same compound?
The IC50 was > 1 mg/L.

What about the IC50 (KM20L2 (colon)) of the same compound?
The IC50 was 0.31 mg/L (≈ 0.303 µM).

With `C=C(CNC(=O)[C@H](C)[C@@H](OC)C1CCCN1C(=O)C[C@@H](OC)[C@H]([C@@H](C)CC)N(C)C(=O)[C@@H](NC(=O)C(C(C)C)N(C)C)C(C)C)[C@@H]1CC[C@]2(CO)CC[C@]3(C)C(CCC4[C@@]5(C)CC[C@H](O)C(C)(C)[C@@H]5CC[C@]43C)[C@@H]12` (stereo partly drawn) [Compound 16b, 30-N-(Dap-Dil-Val-Dov)-betulin] as the compound, how does the IC50 (MCF-7 (breast)) read?
Its IC50 is 0.08 mg/L (≈ 0.077 µM).

And the IC50 (DU-145 (prostate))?
The IC50 was 0.04 mg/L (≈ 0.0385 µM).

What about the IC50 (BXPC-3 (pancreas)) of the same compound?
Its IC50 is 0.4 mg/L (≈ 0.385 µM).

What about the IC50 (SF-268 (CNS)) of the same compound?
The IC50 was 0.04 mg/L (≈ 0.0385 µM).

And the “fold increase in cancer cell growth inhibition” value (Human Cancer Cell Lines)?
Its value is “hundred-fold”.

And the IC50 (NCI-H460 (lung))?
The IC50 was 0.5 mg/L (≈ 0.481 µM).

And the IC50 (KM20L2 (colon))?
The IC50 was 0.09 mg/L (≈ 0.0867 µM).

Which results are given for `CC[C@H](C)C([C@@H](CC(=O)N1CCCC1[C@H](OC)[C@@H](C)C(=O)NCCN1C(=O)[C@]23CCC(C)(C)C1C2[C@H]1CCC2[C@@]4(C)CC[C@H](O)C(C)(C)C4CC[C@@]2(C)[C@]1(C)CC3)OC)N(C)C(=O)[C@@H](NC(=O)[C@H](C(C)C)N(C)C)C(C)C` (stereo partly drawn) [Compound 18b, 28-Amido-allobetulin-28-N-1′-ethyldiamine-N-2′-Dap-Dil-Val-Dov]?
IC50 (MCF-7 (breast)): 0.21 mg/L (≈ 0.195 µM); IC50 (DU-145 (prostate)): 0.06 mg/L (≈ 0.0556 µM); IC50 (BXPC-3 (pancreas)): 0.31 mg/L (≈ 0.287 µM); IC50 (SF-268 (CNS)): 0.09 mg/L (≈ 0.0834 µM); fold increase in cancer cell growth inhibition (Human Cancer Cell Lines): ~10 fold; IC50 (NCI-H460 (lung)): 0.6 mg/L (≈ 0.556 µM); IC50 (KM20L2 (colon)): 0.22 mg/L (≈ 0.204 µM)
